B1: FGF-2: fibroblast growth factor (protein, UniProt P15655 10-154, looked up)
Fibroblast growth factor 2: PALPEDGGAAFPPGHFKDPKRLYCKNGGFFLRIHPDGRVDGVREKSDPHVKLQLQAEERGVVSIKGVCANRYLAMKEDGRLLASKCVTEECFFFERLESNNYNTYRSRKYSSWYVALKRTGQYKLGSKTGPGQKAILFLPMSAKS

Columns and labels:
splenocytes = test: Anti-CD3-activated splenocyte proliferation in co-culture with MSCs; assay type: cell-based, mouse
Experimental: FIGS. 9A, 9B, 9C, 9D, 9E, 9F and 9G. […] Cloned MSCs were first treated with the indicated combinations of recombinant cytokines IFNγ, TNFα, IL-17A (2 ng/ml each) for 12 hr, then cocultured with CD4^+ T cell blasts at a 1:20 ratio (MSC:T cells), and proliferation was assessed by 3H-thymidine incorporation after an additional 12 hr. (FIG. 9B). The mRNA expression of IL-17 receptor family members in MSCs or Raw 264.7 (Macrophages) were examined by RT-PCR. NC: No RT. (FIG. 9C). Surface expression of IL-17RA was detected by immunofluoresence or flow cytometry in cloned MSCs. (FIGS. 9D and 9E). MSCs were first treated with IFNγ and TNFα with or without IL-17A (10 ng/ml), IFNγ and TNFα were supplemented at different cytokine concentrations, for 12 hr, and then cocultured with CD4^+ T cell blasts (FIG. 9D) or T cell hybridoma A1.1 cells (FIG. 9E) at a ratio of 1:20 for 12 hr. T cell proliferation was measured by 3H-Tdr incorporation. (FIG. 9F). MSCs were first treated with IFNγ and TNFα (2 ng/ml) with graded concentrations of IL-17A, for 12 hr, and then cocultured with T cell hybridoma A1.1 cells at a ratio of 1:10 for 12 hr. T cell proliferation was measured by 3H-thymidine incorporation. (FIG. 9G). MSCs were cocultured with fresh C57BL/6 splenocytes plus anti-CD3, anti-CD28, and antibodies against IL-17A, at a 1:20 or 1:40 ratio (MSCs:splenocytes), for 48 hr, and then cell proliferation was assessed by 3H-thymidine incorporation. Proliferation values represent means±SEM of three wells from a representative of three experiments.
To examine the possibility that cytokines induce the immunosuppressive capacity of MSCs, these culture conditions were reproduced by combining MSCs and fresh splenocytes at graded ratios in the presence of anti-CD3. […] The immunosuppressive capacity of MSC clones generated from different mouse strains was also examined.
To identify the mechanism through which immunosuppression by cytokine-exposed MSCs is effected, the response of anti-CD3-activated splenocytes co-cultured with MSCs (1:20, MSC:splenocytes) in a […] system was examined in various configurations.
Nitric oxide (NO) at high concentrations is known to inhibit T cell responses. It diffuses quickly from its source, but the concentration of the active form drops off within about 100 μm.
Proliferation assay—To assay T cell proliferation, 0.5 μCi of 3H-thymidine was added to each well of 96-well plates 6 hr before termination of the cultures by freezing. Plates were then thawed, cells were harvested, and incorporated 3H-Tdr was assessed with a Wallac Microbeta scintillation counter (Perkin-Elmer, Waltham, MA).

[1] = tested on: 355 B-cell lymphoma cell line; test: 355 B-cell lymphoma survival model; assay type: in vivo; conditions: 0.1 mg/mouse i.p. on day 0, 2, 4, 8, 12, 16, 20, 24, and 28
Experimental: FIG. 4. is a graph showing that lymphoma stromal cells (LSCs) promote lymphoma development in a NO-dependent manner. 355 B-cell lymphoma cell line (C3H-gld/gld background, 0.5×10^6 cells/mouse) was co-injected with gld/gld mice-derived lymphoma stromal cells (C3H background, P5, 0.25×10^6 cells/mouse) by tail-vein i.v. on day 0.1400 W (NOS inhibitor, 0.1 mg/mouse) was injected on day 0, 2, 4, 8, 12, 16, 20, 24, and 28 by i.p. Mice survival was recorded when mice were moribund.
To examine the effect of lymphoma stromal cells on tumor growth, 355 B-cell lymphoma cell line (C3H-gld/gld background, 0.5×10^6 cells/mouse) was co-injected with gld/gld mice-derived lymphoma stromal cells (C3H background, P5, 0.25×10^6 cells/mouse).

iNOS = iNOS protein and NO production in MSCs with type I IFN or FGF-2; assay type: cell-based, mouse; conditions: induced by IFN γ+TNF α or IFN γ+IL-β
Description: FIGS. 17A, 17B, 17C and 17D. Type I interferons and FGF-2 down-regulate the immunosuppressive effect of MSCs through attenuation NO production. […] (FIG. 17C) FGF-2 (FGF B) inhibited the NO production which was induced by IFN γ+TNF α or IFN γ+IL-β in MSCs, reflected by nitrate content in the culture supernatants.

Molecule	splenocyte proliferation in MSC co-culture with iNOS inhibitor (splenocytes; MSCs + splenocytes + anti-CD3)	effect on stromal cell-enhanced mortality [1]	MSC-mediated immunosuppression in MSC+splenocyte+anti-CD3 system (splenocytes)	NO production in MSCs (nitrate content in culture supernatants) (iNOS)
CC(=N)NCc1cccc(CN)c1 [1400 W]	same effect	significantly reverted the effect		
B1			significantly reduced	inhibited

Reference: patent publication US12156889B2, “Methods of administering mesenchymal stem cells activated by cytokines for enhancing immunosuppression” (Rutgers, The State University of New Jersey, priority 2012, dated 2024)
